Assays:
Format in all cases: cell-based
Details in all cases: 0.0625 μg/ml, 48 hours, control set as 1-fold, average of three experiments
TPH1 gene = assay: qPCR expression of TPH1 gene in SHSY5Y cells
Protocol: (§1) SHSY5Y cells were seeded in a 6-well plate (1×10^5 cells/well) and then cultured for 24 hours. Thereafter, cells were divided into the control group and experimental group and were separately cultured in the following medium for 48 hours: • 1. Control group: DMEM medium; • 2. Experimental group: a medium the same as that of the control group, but additionally added with 0.0625 μg/ml of the compound of formula (I).
(§2) Thereafter, cells of the above groups were harvested and subjected to an RNA extraction with an RNA Extract Kit. The RNA thus obtained was then transcribed into cDNA by using a Reverse Transcriptase. Thereafter, the cDNA was subjected to a quantitative polymerase chain reaction (qPCR) by using a Step One Plus system and a KAPA SYBR FAST qPCR kit to determine the expression levels of genes related to melatonin (including TPH1, DDC, AANAT and ASMTL) in the cells of each group.
(§3) The above experimental steps were repeated three times, and then the results of the three experiments were averaged. Thereafter, the result of the control group was used as a basis (i.e., the gene expression level of the control group was set as 1-fold) to calculate the relative gene expression level of the experimental group.

DDC gene = assay: qPCR expression of DDC gene in SHSY5Y cells
Protocol: as §1, §2, §3

AANAT gene = assay: qPCR expression of AANAT gene in SHSY5Y cells
Protocol: as §1, §2, §3

ASMTL gene = assay: qPCR expression of ASMTL gene in SHSY5Y cells
Protocol: as §1, §2, §3

O=C1C(O)=Cc2cccc3ccc(-c4ccc(O)cc4)c1c23 [compound of formula (I), hydroxyanigorufone]
significantly increased: expression level of TPH1 gene relative to control group (TPH1 gene) | expression level of DDC gene relative to control group (DDC gene) | expression level of AANAT gene relative to control group (AANAT gene) | expression level of ASMTL gene relative to control group (ASMTL gene)
